Experimental data reported in patent publication US11149062B2, “HDAC inhibitors and methods of treatment using the same” (UWM Research Foundation, Inc., priority 2015, dated 2021).

Legend:
[1] = test system: MDA-MB-231 (breast cancer); test: MTT antiproliferative assay, MDA-MB-231; assay type: cell-based; conditions: Homo sapiens, MDA-MB-231; MTT, 48 h; read-out: Antiproliferative Activity GI50, Breast MDA-MB-231
Experimental: (§1) Briefly, the tumor cells (1×10^4 cells/well) were seeded in 96-well microtiter plates and incubated for 24 h at 37° C. Following incubation, the media was replaced with fresh media containing the above compounds at concentrations ranging from 1 μM to 1 pM diluted in DMSO and incubated for an additional 48 h. Drugs were run in duplicate or triplicate and control cells received fresh media with DMSO concentration equivalent to the treatment groups. […] After aspirating the culture medium, 200 μL of DMSO was added to dissolve the precipitate and the resulting solution was measured for absorbance at 570 nm with a reference wavelength of 690 nm using a microplate reader (Infinite M200 Pro TECAN).

BALB/c mice = test: in vivo; conditions: BALB/c, mouse, in vivo, ip, 2 weeks
DU-145 (prostate cancer) = test: MTT antiproliferative assay, DU-145; assay type: cell-based; conditions: Homo sapiens, DU-145; MTT, 48 h; read-out: Antiproliferative Activity GI50, Prostate DU-145
Experimental: as §1

COLO-205 (colon cancer) = test: MTT antiproliferative assay, COLO-205; assay type: cell-based; conditions: Homo sapiens, COLO 205; MTT, 48 h; read-out: Antiproliferative Activity GI50, Colon COLO-205
Experimental: as §1

SKOV-3 (ovarian) = test: MTT antiproliferative assay, SKOV-3; assay type: cell-based; conditions: Homo sapiens, SK-OV-3; MTT, 48 h; read-out: Antiproliferative Activity GI50, Ovarian SKOV-3
Experimental: as §1

For COC(=O)[C@H]1CSSCC/C=C/C(O)CC(=O)N[C@H](CCSC)C(=O)N1 (stereo partly drawn) [TDF3m, Methyl (4S,7R,12E)-11-hydroxy-7-[2-(methylsulfanyl)ethyl]-6,9-dioxo-1,2-dithia-5,8-diazacyclopentadec-12-ene-4-carboxylate], the GI50 [1] was 600 nM, the “MTD (toxicity in healthy BALB/c mice)” value (BALB/c mice) was greater than 200 mg/kg and the GI50 (DU-145 (prostate cancer)) was 300 nM. For the same compound, the GI50 (COLO-205 (colon cancer)) was 900 nM and the GI50 (SKOV-3 (ovarian)) was 500 nM.
